Experimental data taken from ChEMBL document CHEMBL3045600, “Synthesis and Fungicidal Activities of Phenoxyphenyl Alkoxyiminoacetamide Derivatives” (J Pestic Sci, 1998).

Key:
Type in all cases: functional
[1] = test system: Thanatephorus cucumeris; test: Fungicidal activity against Thanatephorus cucumeris assessed as rice sheath blight disease control at 31.3 ppm foliar application for 24 hr before inoculation at 26 +- 2 measured after 5 days by preventive manner
[2] = test system: Pseudoperonospora cubensis; test: Fungicidal activity against Pseudoperonospora cubensis assessed as cucumber downy mildew disease control at 2 ppm foliar application 24 hr before inoculation on upper surface of leaf by preventive manner
[3] = test system: Thanatephorus cucumeris; test: Fungicidal activity against Thanatephorus cucumeris assessed as rice sheath blight disease control at 125 ppm foliar application for 24 hr before inoculation at 26 +- 2 measured after 5 days by preventive manner
[4] = test system: Podosphaera fuliginea; test: Fungicidal activity against Podosphaera fuliginea assessed as cucumber powdery mildew control under greenhouse at 125 ppm foliar application 24 hr after inoculation on upper surface of leaf at 23 +/- 2 degC by curative manner
[5] = test system: Pyricularia oryzae; test: Fungicidal activity against Magnaporthe oryzae assessed as rice blast disease control at 0.16 ppm submerged application measured after 7 days
[6] = test system: Thanatephorus cucumeris; test: Fungicidal activity against Thanatephorus cucumeris assessed as rice sheath blight disease control at 2 ppm foliar application for 24 hr before inoculation at 26 +- 2 measured after 5 days by preventive manner
[7] = test system: Podosphaera fuliginea; test: Fungicidal activity against Podosphaera fuliginea assessed as cucumber powdery mildew control under greenhouse at 2 ppm foliar application 24 hr before inoculation on upper surface of leaf at 23 +/- 2 degC by preventive manner
[8] = test system: Thanatephorus cucumeris; test: Fungicidal activity against Thanatephorus cucumeris assessed as rice sheath blight disease control at 7.8 ppm foliar application for 24 hr before inoculation at 26 +- 2 measured after 5 days by preventive manner
[9] = test system: Pseudoperonospora cubensis; test: Fungicidal activity against Pseudoperonospora cubensis assessed as cucumber downy mildew disease control at 7.8 ppm foliar application 24 hr before inoculation on upper surface of leaf by preventive manner
[10] = test system: Pseudoperonospora cubensis; test: Fungicidal activity against Pseudoperonospora cubensis assessed as cucumber downy mildew disease control at 31.3 ppm foliar application 24 hr before inoculation on upper surface of leaf by preventive manner
[11] = test system: Podosphaera fuliginea; test: Fungicidal activity against Podosphaera fuliginea assessed as cucumber powdery mildew control under greenhouse at 7.8 ppm foliar application 24 hr after inoculation on upper surface of leaf at 23 +/- 2 degC by curative manner
[12] = test system: Podosphaera fuliginea; test: Fungicidal activity against Podosphaera fuliginea assessed as cucumber powdery mildew control under greenhouse at 125 ppm foliar application 24 hr before inoculation on upper surface of leaf at 23 +/- 2 degC by preventive manner
[13] = test system: Pyricularia oryzae; test: Fungicidal activity against Magnaporthe oryzae assessed as rice blast disease control at 2.5 ppm submerged application measured after 7 days
[14] = test system: Podosphaera fuliginea; test: Fungicidal activity against Podosphaera fuliginea assessed as cucumber powdery mildew control under greenhouse at 31.3 ppm foliar application 24 hr after inoculation on upper surface of leaf at 23 +/- 2 degC by curative manner
[15] = test system: Podosphaera fuliginea; test: Fungicidal activity against Podosphaera fuliginea assessed as cucumber powdery mildew control under greenhouse at 2 ppm foliar application 24 hr after inoculation on upper surface of leaf at 23 +/- 2 degC by curative manner
[16] = test system: Pyricularia oryzae; test: Fungicidal activity against Magnaporthe oryzae assessed as rice blast disease control at 0.63 ppm submerged application measured after 7 days
[17] = test system: Podosphaera fuliginea; test: Fungicidal activity against Podosphaera fuliginea assessed as cucumber powdery mildew control under greenhouse at 31.3 ppm foliar application 24 hr before inoculation on upper surface of leaf at 23 +/- 2 degC by preventive manner
[18] = test system: Pseudoperonospora cubensis; test: Fungicidal activity against Pseudoperonospora cubensis assessed as cucumber downy mildew disease control at 125 ppm foliar application 24 hr before inoculation on upper surface of leaf by preventive manner
[19] = test system: Pyricularia oryzae; test: Fungicidal activity against Magnaporthe oryzae assessed as rice blast disease control at 10 ppm submerged application measured after 7 days
[20] = test system: Podosphaera fuliginea; test: Fungicidal activity against Podosphaera fuliginea assessed as cucumber powdery mildew control under greenhouse at 7.8 ppm foliar application 24 hr before inoculation on upper surface of leaf at 23 +/- 2 degC by preventive manner
[21] = test system: Botrytis cinerea; test: Fungicidal activity against Botryotinia fuckeliana assessed as cucumber gray mold disease control at 2 ppm foliar application 24 hr after inoculation at 22 +/- 2 degC measured after 3 days by curative manner
[22] = test system: Botrytis cinerea; test: Fungicidal activity against Botryotinia fuckeliana assessed as cucumber gray mold disease control at 125 ppm foliar application 24 hr after inoculation at 22 +/- 2 degC measured after 3 days by curative manner
[23] = test system: Botrytis cinerea; test: Fungicidal activity against Botryotinia fuckeliana assessed as cucumber gray mold disease control at 31.3 ppm foliar application 24 hr after inoculation at 22 +/- 2 degC measured after 3 days by curative manner
[24] = test system: Botrytis cinerea; test: Fungicidal activity against Botryotinia fuckeliana assessed as cucumber gray mold disease control at 7.8 ppm foliar application 24 hr after inoculation at 22 +/- 2 degC measured after 3 days by curative manner

Measured: Activity

CNC(=O)/C(=N/OC)c1ccccc1Oc1ccc(Oc2ccccc2)cc1
70%: [1] | [3] | [6] | [7] | [8] | [12] | [17] | [20]
<70%: [2] | [9] | [10] | [18]
50%: [4] | [5] | [11] | [13] | [14] | [15] | [16] | [19]

CNC(=O)/C(=N/OC)c1ccccc1Oc1ccccc1C
70%: [7] | [12] | [17] | [20]
<70%: [1] | [2] | [3] | [6] | [8] | [9] | [10] | [18]
50%: [4] | [5] | [21] | [22] | [11] | [13] | [14] | [15] | [23] | [16] | [24] | [19]

CNC(=O)/C(=N/OC)c1ccccc1Oc1ccc(C)cc1
<70%: [2] | [9] | [10] | [18]
70%: [1] | [3] | [6] | [7] | [8] | [12] | [17] | [20]
50%: [4] | [5] | [21] | [22] | [11] | [13] | [14] | [15] | [23] | [16] | [24] | [19]

CNC(=O)/C(=N/OC)c1ccccc1Oc1ccc(C(C)C)cc1
50%: [4] | [5] | [21] | [22] | [11] | [13] | [14] | [15] | [23] | [16] | [24] | [19]
70%: [1] | [2] | [3] | [6] | [7] | [8] | [9] | [10] | [12] | [17] | [18] | [20]

CNC(=O)/C(=N/OC)c1ccccc1Oc1ccc(C(C)C)cc1C(C)C
50%: [4] | [5] | [11] | [13] | [14] | [15] | [16] | [19]
<70%: [2] | [9] | [10] | [18]
70%: [1] | [3] | [6] | [7] | [8] | [12] | [17] | [20]

CNC(=O)/C(=N/OC)c1ccccc1Oc1cccc(O)c1
50%: [5] | [13] | [16] | [19]
70%: [1] | [3] | [6] | [8]
<70%: [2] | [7] | [9] | [10] | [12] | [17] | [18] | [20]

CNC(=O)/C(=N/OC)c1ccccc1Oc1cccc(OCC#N)c1
50%: [4] | [11] | [14] | [15]
70%: [7] | [12] | [17] | [20]
<50%: [5] | [13] | [16] | [19]
<70%: [1] | [2] | [3] | [6] | [8] | [9] | [10] | [18]

CNC(=O)/C(=N/OC)c1ccccc1Oc1cccc(OCc2ccccc2)c1
50%: [4] | [21] | [22] | [11] | [14] | [15] | [23] | [24]
70%: [1] | [2] | [3] | [6] | [7] | [8] | [9] | [10] | [12] | [17] | [18] | [20]
<50%: [5] | [13] | [16] | [19]

CNC(=O)/C(=N/OC)c1cc(C)ccc1Oc1ccccc1
70%: [1] | [2] | [3] | [6] | [7] | [8] | [9] | [10] | [12] | [17] | [18] | [20]

CNC(=O)/C(=N/OC)c1ccc(C)cc1Oc1ccccc1
70%: [1] | [2] | [3] | [6] | [7] | [8] | [9] | [10] | [12] | [17] | [18] | [20]

CNC(=O)/C(=N/OC)c1ccccc1Oc1ccc([Si](C)(C)C)cc1
<50%: [5] | [21] | [22] | [13] | [23] | [16] | [24] | [19]
50%: [4] | [11] | [14] | [15]
<70%: [1] | [2] | [3] | [6] | [8] | [9] | [10] | [18]
70%: [7] | [12] | [17] | [20]
